Test results: patent US20240216354A1, “IMMUNOMODULATORY IMIDE DRUGS AS ZETA-CHAIN-ASSOCIATED PROTEIN KINASE 70 (ZAP70) AGONISTS AND USES THEREOF” (Dana-Farber Cancer Institute, Inc., priority 2019, published 2024)
One block for each molecule: values may come before it.

Tests used:
Zap-70 [1] = biological target: T1, Zap-70 (Homo sapiens, UniProt P43403); test: Saturation-transfer difference (STD) NMR binding to recombinant Zap-70; parameters: purchased Origene, Rockville, MD; settings: Pom 320 μM, Len 2.56 mM, ATP 2.56 mM, Zap-70 approximately 2 μM, deuterated PBS
T1 sequence (P43403 1-619): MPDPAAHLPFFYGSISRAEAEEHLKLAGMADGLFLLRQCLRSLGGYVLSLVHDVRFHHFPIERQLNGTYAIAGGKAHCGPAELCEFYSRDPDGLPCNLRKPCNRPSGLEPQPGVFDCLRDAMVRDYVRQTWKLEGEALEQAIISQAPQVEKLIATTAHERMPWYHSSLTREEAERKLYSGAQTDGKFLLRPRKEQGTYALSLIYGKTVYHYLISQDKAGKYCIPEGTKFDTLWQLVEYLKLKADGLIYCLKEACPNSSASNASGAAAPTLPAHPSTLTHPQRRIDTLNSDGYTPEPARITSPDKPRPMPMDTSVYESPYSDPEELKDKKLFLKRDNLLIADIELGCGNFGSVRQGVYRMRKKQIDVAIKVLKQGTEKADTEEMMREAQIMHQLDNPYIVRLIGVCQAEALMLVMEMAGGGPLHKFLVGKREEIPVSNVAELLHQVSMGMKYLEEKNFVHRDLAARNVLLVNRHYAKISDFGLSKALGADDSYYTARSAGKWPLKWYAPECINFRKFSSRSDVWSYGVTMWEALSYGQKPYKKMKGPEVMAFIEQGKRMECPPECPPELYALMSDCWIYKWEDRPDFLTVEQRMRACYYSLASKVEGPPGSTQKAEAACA
Protocol: (§1) (A) Jurkat cells were transfected with scrambled (Sc) siRNA or Zap-70 siRNA. Whole cell lysates were subjected to immunoblotting using indicated Abs. (B) Jurkat cells were treated with lenalidomide ([…]) or pomalidomide (1 and 3 μM) for 4 h and 8 h. Whole cell lysates were subjected to p-Zap ELISA assay. (C) Jurkat whole cell lysates were incubated with pomalidomide-beads in the presence or absence of competitor (1 mM free pomalidomide) for 1 h. After elution, samples were subjected to immunoblotting using anti-Zap-70 Ab. (D) Saturation-transfer difference resulting from the binding of pomalidomide to Zap-70. Pomalidomide is at 320 μM and Zap-70 is approximately 2 μM in deuterated PBS solution. […] (E) Saturation-transfer difference resulting from the binding of pomalidomide to Zap-70 in the presence of 2.56 mMATP. Pomalidomide is at 320 μM and Zap-70 is approximately 2 μM in deuterated PBS solution. […] Note that both ATP and pomalidomide show binding the Zap-70. (F) Non-cell based Zap-70 kinase assay was carried out, according to manufacturer's protocol.
(A) Saturation-transfer difference resulting from the binding of lenalidomide to Zap-70, with lenalidomide (2.56 mM) and Zap-70 (2 μM) in deuterated PBS solution. […] (B) Saturation-transfer difference resulting from the binding of lenalidomide to Zap70 in the presence of 2.56 mM ATP, with lenalidomide (2.56 mM) and Zap-70 (2 μM) in deuterated PBS solution.
Commercial recombinant Zap-70 (Origene, Rockville, MD) was prepared by gel filtration buffer exchange into deuterated phosphate-buffered saline (PBS), which removed any components of the protein storage buffer, including glycerol. Len and Pom were made as d6-DMSO stock solutions and frozen in aliquots prior to use. ATP was stored frozen in aliquots at −20° C. in deuterated PBS. NMR samples were prepared in 5 mm SampleJet tubes to a final volume of 500 μl by adding 5-20 μl of the appropriate IMiD stock solution to the buffer-exchanged protein. The final concentration of protein in the NMR samples was approximately 2 μM. […]

IKZF3 = IKZF3 expression in KHYG-1 cells (immunoblotting); format: cell-based
Protocol: (§2) (A) KHYG-1 cells were transfected with CRBN, IKZF1, or IKZF3 siRNA. The transfectants were then cultured for 24 h with pomalidomide (0.5 μM). The arrow indicates CRBN. (B) KHYG-1 cells were cultured with pomalidomide for 24 h (0.5 μM), in the presence or absence of bortezomib (BTZ; 2.5 and 5 nM). (C, D) KHYG-1 cells were cultured for 24 h with lenalidomide, pomalidomide, or CC-220 (i.e., iberdomide) (0.01-1 μM). Whole cell lysates and RNAs were subjected to immunoblotting using indicated Abs (C) and real-time q-PCR (D), respectively.

Zap-70 [2] = biological target: T1, Zap-70; test: Immunoblotting of p-Zap-70 in NK-92 cells; format: cell-based; settings: 24 h, Pom 0.5 and 1 μM, CC-220 0.01, 0.1, 1 μM
Protocol: (§3) (A) NK-92 cells were cultured with Pom (0.5 and 1 μM) for 24 h. Whole cell lysates were subjected to immunoblotting using indicated Abs. (B) NK-92 cells were cultured with Pom (0.5 and 1 μM) for 48 h. The cells were subsequently incubated with calcein-AM-stained U266 cells for 4 h at the indicated effector/target (E/T) ratios. Percent specific lysis was calculated as described previously. (C) NK-92 cells were cultured with Pom (0.03-3 μM) for 72 h. Cell growth was assessed by MTT assay. (D) NK-92 cells were transfected with scrambled (Sc) or Zap-70 siRNA (Zap70si). After 72 h incubation, cell viability was measured by trypan-blue dye exclusion. For B, C, and D, data are representative of at least two independent experiments, and values are expressed in mean±SD.
(§4) (A) NK-92 cells were cultured with Len (1 μM), Pom (0.01, 0.1, 1 μM) or CC-220 (0.01, 0.1, 1 μM) for 24 h. Whole cell lysates were subjected to immunoblotting using indicated Abs. (B) NK-92 cells were cultured with Pom (0.1 and 1 μM) or CC-220 ([…]) for 48 h. NK cell activity was measured by incubation with calcein AM-labeled U266 cells for 4 h at E/T ratio of 2.5/1. Percent specific lysis was calculated as previously described. Data are representative of three independent experiments, and values are expressed in mean±SD. *: p<0.01.

U266 cells = test: NK-92 NK cell activity against calcein-AM-stained U266 cells; format: cell-based; settings: NK-92 cells, 48 h; Pom 0.5 and 1 μM; CC-220 0.1 and 1 μM, E/T 2.5/1
Protocol: as §3, §4

granzyme-B (GZM-B) = test: GZM-B expression in KHYG-1 cells (immunoblotting, real-time qPCR); format: cell-based
Protocol: (A) KHYG1 cells were cultured with pomalidomide (0.25-1 μM) for 24 h. (B) Isolated primary NK cells from healthy volunteers (#1, #2) were cultured with pomalidomide (0.3-1 μM) for 24 h. (C) KHYG-1 cells were transfected with Scsi or Zap-70si. After 48 h, cells were cultured for 24 h in the absence or presence (0.5 μM) of pomalidomide. Whole cell lysates and RNAs were subjected to immunoblotting using indicated Abs.
(A) KHYG-1 cells were transfected with Scsi or CRBNsi. After 48 h, cells were cultured in the absence or presence of pomalidomide (0.5 μM) for 24 h, and cell lysates immunoblotted with indicated Abs. (B) KHYG-1 cells were transfected with Scsi or Zap-70si, and then cultured for 72 h with pomalidomide (0.25 μM), in the absence of IL-2. Cells were counted and incubated with calcein AM-labeled U266 for 4 h at indicated effector/target (E/T) ratios.
as §2

CRBN = CRBN (Homo sapiens, UniProt Q96SW2); settings: cited from earlier work
Zap-70 [3] = biological target: T1, Zap-70; test: PathScan Phospho-Zap-70 (Tyr319) Sandwich ELISA in Jurkat cells; format: cell-based; settings: lenalidomide (1 and 3 μM) or pomalidomide (1 and 3 μM), 4 h and 8 h, Len<Pom
Protocol: as §1
Phosphorylation of Zap-70 was evaluated using PathScan Phospho-Zap-70 (Tyr319) Sandwich ELISA Kit (Cell Signaling Technology), according to manufacturer's protocol.

Zap-70 [4] = biological target: T1, Zap-70; test: Immunoblotting of p-Zap-70, p-LAT and p-ERK in PBMCs; format: cell-based; parameters: endogenous in cells; host or cells: primary PBMCs, primary T cells and primary NK cells from healthy volunteers; settings: 16 h, Pom 0.01-1 μM, Len 1 μM
Protocol: (A) PBMCs were cultured with pomalidomide (“Pom”) (0.01-1 μM) for 16 h. […] (B) PBMCs were cultured with pomalidomide (0.1 and 1 μM) for the indicated time periods. (C) PBMCs were cultured with lenalidomide (“Len”) (1 μM) for 16 h. (D) Primary T-cells from healthy volunteer were cultured with pomalidomide (0.25-1 μM) for 16 h. (E) Jurkat cells were cultured with pomalidomide (0.5 and 1 μM) for 16 h. Whole cell lysates were subjected to immunoblotting (A-E) using indicated Abs. (F) Jurkat cells were cultured with pomalidomide (0.01-1 μM) or lenalidomide (0.01-1 μM) for 72 h. Cell growth was assessed by MTT assay.
To characterize the effect of IMiDs on Zap-70 function in immune effector cells, pomalidomide triggered phosphorylation of Zap-70 was evaluated along with its known downstream target linker of activated T-cells (LAT) in PBMCs from healthy volunteers. […] Image J densitometric analysis confirmed 42% increased p-Zap-70 after pomalidomide (1 μM) treatment (FIG. 1A, lower panel). The increased p-Zap-70, p-LAT, as well as downstream p-ERK in PBMCs triggered by pomalidomide is also time-dependent (FIG. 1B). […] Since Zap-70 is a mediator of T-cell receptor signaling, whether IMiDs triggered p-Zap-70 in T cells from healthy volunteers was studied.

[5] = pomalidomide 0.5 μM 24 h, BTZ 2.5 and 5 nM

Chain of CRBN (Q96SW2 whole entry, species assumed): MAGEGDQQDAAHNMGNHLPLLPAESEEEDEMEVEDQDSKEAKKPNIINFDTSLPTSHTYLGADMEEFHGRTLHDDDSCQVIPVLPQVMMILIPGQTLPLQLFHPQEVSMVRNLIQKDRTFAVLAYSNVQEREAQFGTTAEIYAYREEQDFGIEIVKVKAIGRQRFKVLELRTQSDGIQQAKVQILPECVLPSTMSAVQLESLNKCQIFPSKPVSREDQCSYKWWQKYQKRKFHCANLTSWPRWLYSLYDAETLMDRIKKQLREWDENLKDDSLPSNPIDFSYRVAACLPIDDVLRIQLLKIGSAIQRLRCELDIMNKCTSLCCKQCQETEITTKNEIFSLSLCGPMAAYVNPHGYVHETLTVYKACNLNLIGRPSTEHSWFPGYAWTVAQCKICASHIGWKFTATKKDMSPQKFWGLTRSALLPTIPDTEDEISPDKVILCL

SMILES: Nc1ncnc2c1ncn2[C@@H]1O[C@H](COP(=O)(O)OP(=O)(O)OP(=O)(O)O)[C@@H](O)[C@H]1O [ATP]
direct binding to Zap-70 (STD NMR) (Zap-70 [1]): both ATP and lenalidomide bind to Zap-70

SMILES: O=C1CC[C@H](N2Cc3c(OCc4ccc(CN5CCOCC5)cc4)cccc3C2=O)C(=O)N1 [CC-220, iberdomide]
IKZF3 expression (IKZF3; 0.01-1 μM, 24 h): downregulation of IKZF3
p-Zap-70 (immunoblotting) (Zap-70 [2]): induced p-Zap-70 in a dose-dependent fashion
NK cell activity against U266 cells (percent specific lysis) (U266 cells): enhanced NK cell activity
potency in triggering GZM-B, compared among lenalidomide, pomalidomide and CC-220 (granzyme-B (GZM-B); 0.01-1 μM, 24 h, immunoblotting and real-time qPCR): more potently upregulated GZM-B than lenalidomide or pomalidomide
binding affinity to CRBN relative to lenalidomide or pomalidomide (CRBN): enhanced binding affinity to CRBN relative to lenalidomide or pomalidomide

SMILES: CC(C)C[C@H](NC(=O)[C@H](Cc1ccccc1)NC(=O)c1cnccn1)B(O)O [bortezomib]
IKZF3 expression in presence of bortezomib (IKZF3; [5]): upregulation of IKZF3
Pom-induced GZM-B expression in presence of bortezomib (granzyme-B (GZM-B); [5]): downregulated Pom-induced GZM-B expression in a dose-dependent fashion

direct binding to Zap-70 (STD NMR) (Zap-70 [1]): similarly binds to Zap-70
SMILES: Nc1cccc2c1CN(C1CCC(=O)NC1=O)C2=O (stereo not drawn) [lenalidomide]
p-Zap-70 (Tyr319) by ELISA (Zap-70 [3]): increased p-Zap-70 (Tyr319) in a dose-dependent fashion
phosphorylation of LAT (immunoblotting) (Zap-70 [4]): similarly triggered p-Zap-70 and p-LAT in PBMCs
phosphorylation of Zap-70 (immunoblotting) (Zap-70 [4]): similarly triggered p-Zap-70 and p-LAT in PBMCs
